Values quoted from earlier work in US20260034185A1, “POLYPODYIUM LEUCOTOMOS AND LARIX DECIDUA FOR USE IN THE PREVENTION OF DAMAGE FROM UVA, UVB, UVC AND/OR IR RAYS” (Unifarco S.p.A., priority 2022, published 2026).

Molecular target: T1, caspase-1 (Homo sapiens, UniProt P29466)
T1 construct: literature Promega G9951
T1 sequence (P29466 120-297 limits assumed): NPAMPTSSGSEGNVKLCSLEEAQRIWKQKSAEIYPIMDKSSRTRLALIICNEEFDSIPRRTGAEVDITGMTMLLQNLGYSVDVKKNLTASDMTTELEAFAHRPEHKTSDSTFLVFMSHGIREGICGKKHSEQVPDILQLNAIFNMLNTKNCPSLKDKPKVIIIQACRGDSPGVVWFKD
T1 sequence (P29466 317-404 limits assumed): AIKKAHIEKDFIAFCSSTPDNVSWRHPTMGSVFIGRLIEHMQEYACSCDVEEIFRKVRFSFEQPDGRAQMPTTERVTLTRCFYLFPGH
Details: inhibitor included in the Caspase-Glo 1 kit; does not substantially inhibit cross-reactive caspases

inhibition of caspase-1 activity: 99%
Substance: Ac-YVAD-CHO
